Results from US20230373985A1 (Origenis Gmbh, priority 2020, published 2023).

Tests used:
[1] = target: T1, wt human NUAK1, full length (Homo sapiens, UniProt O60285); experiment: TR-FRET LanthaScreen Eu Kinase Binding Assay, NUAK1; settings: read-out: IC50, Activity Toward NUAK1
T1 construct: 8 nM wt human NUAK1, full length (ThermoFisher/USA); purchased ThermoFisher
T1 sequence (O60285 1-661): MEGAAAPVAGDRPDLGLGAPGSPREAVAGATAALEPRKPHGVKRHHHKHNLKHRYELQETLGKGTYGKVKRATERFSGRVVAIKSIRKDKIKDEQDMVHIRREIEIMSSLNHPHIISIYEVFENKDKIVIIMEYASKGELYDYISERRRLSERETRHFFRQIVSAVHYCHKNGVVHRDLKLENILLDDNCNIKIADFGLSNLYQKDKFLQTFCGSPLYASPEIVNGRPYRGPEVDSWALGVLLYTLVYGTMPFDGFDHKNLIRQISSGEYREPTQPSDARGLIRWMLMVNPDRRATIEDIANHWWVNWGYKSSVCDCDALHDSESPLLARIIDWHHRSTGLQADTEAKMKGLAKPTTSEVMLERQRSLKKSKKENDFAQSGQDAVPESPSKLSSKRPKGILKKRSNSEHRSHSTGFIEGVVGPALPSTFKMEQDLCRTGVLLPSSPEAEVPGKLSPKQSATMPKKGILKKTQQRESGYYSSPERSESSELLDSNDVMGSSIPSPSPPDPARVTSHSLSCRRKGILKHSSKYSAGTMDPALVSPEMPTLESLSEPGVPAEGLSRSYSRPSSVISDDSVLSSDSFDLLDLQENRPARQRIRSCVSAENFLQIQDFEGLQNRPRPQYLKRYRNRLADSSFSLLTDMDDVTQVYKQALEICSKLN
Experimental: The basic protocol for TR-FRET LanthaScreen Eu Kinase Binding Assay inhibitor studies were performed as follows. LanthaScreen Kinase Binding Assays (ThermoFisher/USA) to evaluate inhibitors were performed by addition of 5 μL of test compound in corresponding DMSO dilutions/5 μl of kinase/antibody mixture, 5 μL of tracer into 384 well small volume plates. After incubation for 1 hour at room temperature, plates were read. Data analysis of emission ratios was according LanthaScreen Eu Kinase Binding Assay protocol.
Kinase and assay components were adjusted to final concentrations according to kit protocol. For LRRK2: 5 nM wt human LRRK2, catalytic site, or G2019S human LRRK2, catalytic site (ThermoFisher/USA), 2 nM Eu-Anti-GST Antibody, 10 nM Kinase Tracer 236 in 1× Kinase Buffer A. For NUAK1: 8 nM wt human NUAK1, full length (ThermoFisher/USA), 2 nM Eu-Anti-His Antibody, 5 nM Kinase Tracer 236 in 1× Kinase Buffer A.

[2] = target: T2, wt human LRRK2, catalytic site (Homo sapiens, UniProt Q5S007); experiment: TR-FRET LanthaScreen Eu Kinase Binding Assay, LRRK2 wt; settings: one range stated for wt and G2019, read-out: IC50, Activity Toward LRRK2(Wt)
T2 construct: 5 nM wt human LRRK2, catalytic site; purchased ThermoFisher
T2 sequence (Q5S007 970-2527 limits assumed): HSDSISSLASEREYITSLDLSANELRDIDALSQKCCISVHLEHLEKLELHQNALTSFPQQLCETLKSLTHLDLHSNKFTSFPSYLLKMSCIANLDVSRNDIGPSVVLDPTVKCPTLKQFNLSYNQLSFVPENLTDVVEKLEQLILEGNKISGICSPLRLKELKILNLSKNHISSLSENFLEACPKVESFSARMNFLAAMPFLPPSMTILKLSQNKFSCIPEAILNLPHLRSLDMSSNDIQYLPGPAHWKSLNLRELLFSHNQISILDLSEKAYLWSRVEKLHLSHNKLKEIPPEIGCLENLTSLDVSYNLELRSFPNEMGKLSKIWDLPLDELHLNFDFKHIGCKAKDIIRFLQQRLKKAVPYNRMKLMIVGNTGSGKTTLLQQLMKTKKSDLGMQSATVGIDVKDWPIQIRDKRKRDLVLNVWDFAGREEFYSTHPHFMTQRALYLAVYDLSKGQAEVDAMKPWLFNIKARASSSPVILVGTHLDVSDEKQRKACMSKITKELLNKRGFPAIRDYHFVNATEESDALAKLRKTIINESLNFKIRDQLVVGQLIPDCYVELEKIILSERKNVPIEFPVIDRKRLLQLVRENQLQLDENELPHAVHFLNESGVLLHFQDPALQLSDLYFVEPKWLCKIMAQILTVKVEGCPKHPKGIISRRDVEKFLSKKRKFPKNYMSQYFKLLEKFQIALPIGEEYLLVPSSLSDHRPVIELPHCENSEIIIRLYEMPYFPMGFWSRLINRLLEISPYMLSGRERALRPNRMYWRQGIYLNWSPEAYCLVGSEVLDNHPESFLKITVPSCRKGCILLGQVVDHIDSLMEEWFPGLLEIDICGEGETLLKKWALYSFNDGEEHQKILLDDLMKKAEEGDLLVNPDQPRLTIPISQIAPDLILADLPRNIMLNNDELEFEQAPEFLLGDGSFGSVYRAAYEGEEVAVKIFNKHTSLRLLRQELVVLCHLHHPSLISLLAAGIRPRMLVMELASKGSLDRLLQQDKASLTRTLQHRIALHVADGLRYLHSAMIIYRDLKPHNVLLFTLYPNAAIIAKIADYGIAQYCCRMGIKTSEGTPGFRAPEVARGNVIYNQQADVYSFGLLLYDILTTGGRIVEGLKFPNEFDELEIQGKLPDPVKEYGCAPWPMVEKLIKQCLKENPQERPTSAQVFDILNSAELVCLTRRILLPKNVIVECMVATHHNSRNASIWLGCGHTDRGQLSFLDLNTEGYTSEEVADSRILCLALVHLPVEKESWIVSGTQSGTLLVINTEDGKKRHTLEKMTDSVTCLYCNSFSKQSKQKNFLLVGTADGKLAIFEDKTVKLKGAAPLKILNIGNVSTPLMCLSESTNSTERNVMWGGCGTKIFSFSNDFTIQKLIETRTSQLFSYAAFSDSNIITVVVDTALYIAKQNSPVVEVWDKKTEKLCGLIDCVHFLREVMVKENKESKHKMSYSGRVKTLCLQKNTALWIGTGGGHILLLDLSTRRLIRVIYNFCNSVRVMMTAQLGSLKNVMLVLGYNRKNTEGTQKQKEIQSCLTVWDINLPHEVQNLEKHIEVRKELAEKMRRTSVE
Outline: (§1)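 Kinase Buffer A holding, as final levels, 8 nM full-length NUAK1, 2 nM Eu-anti-His antibody and 5 nM Tracer 236, or 5 nM LRRK2 catalytic site (wt or G2019S), 2 nM Eu-anti-GST and 10 nM Tracer 236. Compound added, then 1 h at room temperature before TR-FRET ratio readout.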

[3] = target: T3, G2019S human LRRK2, catalytic site (Homo sapiens, UniProt Q5S007, G2019S); experiment: TR-FRET LanthaScreen Eu Kinase Binding Assay, LRRK2 G2019S; settings: LRRK2(G2019); one range stated for wt and G2019; read-out: IC50, Activity Toward LRRK2(G2019)
T3 construct: G2019S human LRRK2, catalytic site; purchased ThermoFisher
T3 sequence (Q5S007 970-2527 G2019S limits assumed): as the sequence (Q5S007 970-2527 limits assumed) above, with G1050S counted along it
Outline: as §1

[4] = target: T4, wt human JAK1, catalytic site (Homo sapiens, UniProt P23458); experiment: HTRF KinEASE assay, JAK1; type: biochemical; settings: 2.5 μM ATP; read-out: IC50, Activity Toward JAK1
T4 construct: wt human JAK1, catalytic site; purchased ThermoFisher
T4 sequence (P23458 875-1153 limits assumed): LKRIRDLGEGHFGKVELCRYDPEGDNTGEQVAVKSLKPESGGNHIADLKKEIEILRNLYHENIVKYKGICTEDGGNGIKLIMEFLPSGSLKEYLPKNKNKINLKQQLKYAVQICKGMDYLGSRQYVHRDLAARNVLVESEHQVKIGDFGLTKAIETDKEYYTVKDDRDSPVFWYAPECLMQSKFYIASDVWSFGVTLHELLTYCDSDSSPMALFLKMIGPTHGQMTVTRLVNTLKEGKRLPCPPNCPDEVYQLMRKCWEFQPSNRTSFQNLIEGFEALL
Outline: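 Compounds in DMSO dilution were mixed with kinase, biotin-TK substrate and ATP and reacted for ≥30 min at room temperature. Detection reagents (antibody, streptavidin-XL665) were read 60 min later as HTRF, with emission ratios analysed per KinEASE protocol.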

[5] = target: T5, wt human TYK2, catalytic site (Homo sapiens, UniProt P29597); experiment: HTRF KinEASE assay, TYK2; type: biochemical; settings: 1 μM ATP; read-out: IC50, Activity Toward TYK2
T5 construct: wt human TYK2, catalytic site; purchased SignalChem
T5 sequence (P29597 897-1176 limits assumed): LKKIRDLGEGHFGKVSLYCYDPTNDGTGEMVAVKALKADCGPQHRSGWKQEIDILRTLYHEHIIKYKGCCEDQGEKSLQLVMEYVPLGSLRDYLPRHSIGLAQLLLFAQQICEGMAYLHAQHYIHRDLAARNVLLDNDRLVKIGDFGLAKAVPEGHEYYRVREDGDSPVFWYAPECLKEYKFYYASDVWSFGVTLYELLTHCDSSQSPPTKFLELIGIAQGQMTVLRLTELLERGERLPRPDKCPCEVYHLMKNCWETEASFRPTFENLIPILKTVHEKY
Outline: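 Kinase reaction run at room temperature for at least 30 min: 2 nM TYK2 with 1 μM ATP, or 1 nM JAK2 with 100 μM ATP, each with 1 μM biotin-TK substrate. Phosphorylation detected by HTRF (60 min antibody/XL665) and evaluated from emission ratios.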

| IC50 [1] [nM] | IC50 [2] [nM] | IC50 [3] [nM] | IC50 [4] [nM] | IC50 [5] [nM] | Structure (SMILES) |
| --- | --- | --- | --- | --- | --- |
| 100 to 1000 | 100 to 1000 | 100 to 1000 | 100 to 1000 | < 10 | N#Cc1cn(C2COC2)c(-c2ccc(Nc3cn(-c4c(Cl)cccc4Cl)nc3C(N)=O)cc2)n1 [compound 349, 4-((4-(4-cyano-1-(oxetan-3-yl)-1H-imidazol-2-yl)phenyl)amino)-1-(2,6-dichlorophenyl)-1H-pyrazole-3-carboxamide] |
| 100 to 1000 | 100 to 1000 | 100 to 1000 | 10 to 100 | 10 to 100 | Cn1cc(Nc2cn(-c3c(F)cccc3Cl)nc2C(N)=O)cn1 [compound 359, 1-(2-chloro-6-fluorophenyl)-4-((1-methyl-1H-pyrazol-4-yl)amino)-1H-pyrazole-3-carboxamide] |
| 100 to 1000 | 100 to 1000 | 100 to 1000 | 10 to 100 | 10 to 100 | NC(=O)c1nn(-c2c(Cl)cccc2Cl)cc1Nc1ccc(C(=O)N2CC[C@@H](N)C2)cc1 [compound 318, (R)-4-((4-(3-aminopyrrolidine-1-carbonyl)phenyl)amino)-1-(2,6-dichlorophenyl)-1H-pyrazole-3-carboxamide] |
| 100 to 1000 | 100 to 1000 | 100 to 1000 | < 10 | < 10 | NC(=O)c1nn(-c2c(Cl)cccc2Cl)cc1Nc1ccc(C(=O)N2CC(C(N)=O)C2)cc1 [compound 453, 4-[4-(3-Carbamoyl-azetidine-1-carbonyl)-phenylamino]-1-(2,6-dichloro-phenyl)-1H-pyrazole-3-carboxylic acid amide] |
| 10 to 100 | 100 to 1000 | 100 to 1000 | 10 to 100 | 10 to 100 | CN1CCC(Oc2ccc(Nc3cn(-c4c(F)cccc4Cl)nc3C(N)=O)cc2)CC1 [compound 295, 1-(2-chloro-6-fluorophenyl)-4-((4-((1-methylpiperidin-4-yl)oxy)phenyl)amino)-1H-pyrazole-3-carboxamide] |
| 100 to 1000 | 100 to 1000 | 100 to 1000 | 100 to 1000 | < 10 | CC(=O)N1CC(n2cc(C(F)(F)F)nc2-c2ccc(Nc3cn(-c4c(Cl)cccc4Cl)nc3C(N)=O)cc2)C1 [compound 342, 4-((4-(1-(1-acetylazetidin-3-yl)-4-(trifluoromethyl)-1H-imidazol-2-yl)phenyl)amino)-1-(2,6-dichlorophenyl)-1H-pyrazole-3-carboxamide] |

The remaining lines, values behind:

| Structure (SMILES) | IC50 [1] [nM] | IC50 [2] [nM] | IC50 [3] [nM] | IC50 [4] [nM] | IC50 [5] [nM] |
| --- | --- | --- | --- | --- | --- |
| Cc1ccnnc1-c1ccc(Nc2cn(-c3c(F)cccc3Cl)nc2C(N)=O)cc1 [compound 56, 1-(2-chloro-6-fluorophenyl)-4-((4-(4-methylpyridazin-3-yl)phenyl)amino)-1H-pyrazole-3-carboxamide] | 100 to 1000 | 10 to 100 | 10 to 100 | 100 to 1000 | 10 to 100 |
| NC(=O)c1nn(-c2c(F)cccc2F)cc1Nc1ccc(C(=O)NCC(F)(F)F)cc1 [compound 14, 1-(2,6-difluorophenyl)-4-((4-((2,2,2-trifluoroethyl)carbamoyl)phenyl)amino)-1H-pyrazole-3-carboxamide] | 10 to 100 | 100 to 1000 | 100 to 1000 | 100 to 1000 | 10 to 100 |
| NC(=O)c1nn(-c2c(Cl)cccc2Cl)cc1Nc1ccc(C(=O)N2CCN(CC3CC3)CC2)cc1 [compound 86, 4-((4-(4-(cyclopropylmethyl)piperazine-1-carbonyl)phenyl)amino)-1-(2,6-dichlorophenyl)-1H-pyrazole-3-carboxamide] | 100 to 1000 | 100 to 1000 | 100 to 1000 | 10 to 100 | < 10 |
| Cn1nc(C(F)(F)F)nc1-c1ccc(Nc2cn(-c3c(F)cccc3F)nc2C(N)=O)cc1 [compound 285, 1-(2,6-difluorophenyl)-4-((4-(1-methyl-3-(trifluoromethyl)-1H-1,2,4-triazol-5-yl)phenyl)amino)-1H-pyrazole-3-carboxamide] | 100 to 1000 | 100 to 1000 | 100 to 1000 | 10 to 100 | 10 to 100 |
| CC(C)(C)NC(=O)c1ccc(Nc2cn(-c3c(F)cccc3F)nc2C(N)=O)cc1 [compound 15, 4-((4-(tert-butylcarbamoyl)phenyl)amino)-1-(2,6-difluorophenyl)-1H-pyrazole-3-carboxamide] | 100 to 1000 | 100 to 1000 | 100 to 1000 | 100 to 1000 | 10 to 100 |
| CCNC(=O)c1ccc(Nc2cn(-c3c(F)cccc3F)nc2C(N)=O)cc1 [compound 16, 1-(2,6-difluorophenyl)-4-((4-(ethylcarbamoyl)phenyl)amino)-1H-pyrazole-3-carboxamide] | 100 to 1000 | 100 to 1000 | 100 to 1000 | 100 to 1000 | 10 to 100 |
| NC(=O)c1nn(-c2c(F)cccc2Cl)cc1Nc1ccc(C(=O)NC2CCCNC2)cc1 (stereo not shown) [compound 38, 1-(2-chloro-6-fluorophenyl)-4-((4-(piperidin-3-ylcarbamoyl)phenyl)amino)-1H-pyrazole-3-carboxamide] | 10 to 100 | 100 to 1000 | 100 to 1000 | 10 to 100 | 10 to 100 |
| NC(=O)c1nn(-c2c(F)cccc2F)cc1Nc1ccc(C(=O)N2CCOCC2)nc1 [compound 30, 1-(2,6-difluorophenyl)-4-((6-(morpholine-4-carbonyl)pyridin-3-yl)amino)-1H-pyrazole-3-carboxamide] | 100 to 1000 | 100 to 1000 | 100 to 1000 | 100 to 1000 | 10 to 100 |
| NC(=O)c1nn(-c2c(Cl)cccc2Cl)cc1Nc1ccc(-c2nccn2CC(F)F)cc1 [compound 230, 1-(2,6-dichlorophenyl)-4-((4-(1-(2,2-difluoroethyl)-1H-imidazol-2-yl)phenyl)amino)-1H-pyrazole-3-carboxamide] | 100 to 1000 | 100 to 1000 | 100 to 1000 | 10 to 100 | < 10 |
| Cc1cc(Nc2cn(-c3c(F)cccc3F)nc2C(N)=O)nc(N)n1 [compound 8, 4-((2-amino-6-methylpyrimidin-4-yl)amino)-1-(2,6-difluorophenyl)-1H-pyrazole-3-carboxamide] | 10 to 100 | 100 to 1000 | 100 to 1000 | 100 to 1000 | 100 to 1000 |
| CN(C)C1CCN(C(=O)c2ccc(Nc3cn(-c4c(Cl)cccc4Cl)nc3C(N)=O)cc2)C1 (stereo not shown) [compound 248, 1-(2,6-dichlorophenyl)-4-((4-(3-(dimethylamino)pyrrolidine-1-carbonyl)phenyl)amino)-1H-pyrazole-3-carboxamide] | 100 to 1000 | 100 to 1000 | 100 to 1000 | 10 to 100 | 10 to 100 |
